Experimental data reported in paper PMC10766962 (Nature Communications, 2024).
Several values for one entry are separate records, joined by “and”; a condition that tells them apart may be missing. Equal entries are not always repeated. Entries after “also recorded” stand apart in the source; their conditions may differ. Where two headings read alike, the source gives them in different places. Positions of bridges follow the written chain, without caps; N, C: chain ends. Non-standard residues stand in square brackets, D forms with d. Residues, ends and D or L forms follow the SMILES beside them. Groups on a side chain read outwards from the residue. *: point of attachment. Acetyl(2-S-cholesteryl) = CC(C)CCC[C@@H](C)[C@H]1CC[C@H]2[C@@H]3CC=C4C[C@@H](SCC(=O)*)CC[C@]4(C)[C@H]3CC[C@]12C; R8 = C=CCCCCCC[C@@](C)(N)C(=O)O; PEG4 = NCCOCCOCCOCCOCCC(=O)O; S5 = C=CCCC[C@](C)(N)C(=O)O; Nle = CCCC[C@H](N)C(=O)O

Key:
[1] = biological target: SARS-CoV-2 5-helix bundle (5-HB) protein (Severe acute respiratory syndrome coronavirus 2, UniProt P0DTC2); experiment: biochemical; type: binding
in vivo [2] = details: male, Syrian (Golden), hamster, inhaled or intranasal, 2.5 mg/kg, Nasal Tissue
[3] = type: physicochemical; details: pH 7.4
[4] = test system: SARS-CoV-2 B.1.617.2 pseudovirus
[5] = type: physicochemical; details: pH 7.5
[6] = test system: SARS-CoV-2 WA-1 (Wuhan) isolate; set-up: species or system Syrian (Golden) hamsters; details: hamster, in vivo
[7] = test system: SARS-CoV-2 B.1.1.529.1 pseudovirus
[8] = test system: SARS-CoV-2 Beta B.1.351 live virus
in vivo [9] = details: male, C57BL/6, mouse, inhaled or intranasal
[10] = test system: SARS-CoV-2 Delta B.1.617.2 live virus
[11] = test system: SARS-CoV-2 WA-1 (Wuhan) isolate; set-up: species or system Syrian (Golden) hamsters; details: hamster, in vivo; remark: listed apart in the source
[12] = mouse, in vivo
[13] = type: physicochemical
[14] = 1 mg/kg, RQ-01 Nasal Tissue Concentration
[15] = 3 mg/kg, RQ-01 Nasal Tissue Concentration
[16] = 10 mg/kg, RQ-01 Nasal Tissue Concentration

**Q.** Which cytotoxicity (293T cells) does the source give for `CCCC[C@H](NC(=O)[C@H](CO)NC(=O)[C@H](CO)NC(=O)[C@@H](NC(=O)[C@H](CCC(N)=O)NC(=O)[C@H](CO)NC(=O)[C@H](CO)NC(=O)[C@@H](NC(=O)[C@H](CC(=O)O)NC(C)=O)[C@@H](C)CC)[C@@H](C)CC)C(=O)N[C@@H](CC(N)=O)C(=O)N[C@@H](CCC(N)=O)C(=O)N[C@@H](CO)C(=O)N[C@@H](CC(C)C)C(=O)N[C@]1(C)CCCCCCC=CCCC[C@@](C)(C(=O)N[C@@H](CCC(=O)O)C(=O)N[C@@H](C)C(=O)N[C@@H](CCC(N)=O)C(=O)N[C@@H](CCCCN)C(=O)N[C@H](C(=O)N[C@@H](CC(C)C)C(=O)N[C@@H](CC(=O)O)C(=O)N[C@H](C(=O)N[C@H](C(=O)N[C@@H](CCCCNC(=O)CCOCCOCCOCCOCCNC(=O)CS[C@H]2CC[C@@]3(C)C(=CC[C@H]4[C@@H]5CC[C@H]([C@H](C)CCCC(C)C)[C@@]5(C)CC[C@@H]43)C2)C(N)=O)C(C)C)[C@@H](C)O)[C@@H](C)CC)NC(=O)[C@H]([C@@H](C)CC)NC(=O)[C@H](Cc2ccc(O)cc2)NC(=O)[C@H](CC(=O)O)NC(=O)[C@H](CCCCN)NC(=O)[C@H](CO)NC(=O)[C@H](CCC(N)=O)NC1=O` [SLI-NIPV] (Ac-DISSQISS[Nle]NQSL[R8]QSKDYI[S5]EAQKILDTVK([PEG4-Acetyl(2-S-cholesteryl)])-NH2; staple 14-21) here?
**A.** no cytotoxicity

**Q.** Which “improvement of affinity compared to the unstapled HR2 peptide” value [1] does the source give for `CC[C@H](C)[C@H](NC(=O)CNC(=O)[C@H](CO)NC(=O)[C@@H](NC(=O)[C@H](CC(=O)O)NC(C)=O)[C@@H](C)CC)C(=O)N[C@@H](CC(N)=O)C(=O)N[C@@H](C)C(=O)N[C@@H](CO)C(=O)N[C@H](C(=O)N[C@H](C(=O)N[C@@H](CC(N)=O)C(=O)N[C@H](C(=O)N[C@]1(C)CCCCCCC=CCCC[C@@](C)(C(=O)N[C@@H](CCC(=O)O)C(=O)N[C@H](C(=O)N[C@@H](C)C(=O)N[C@@H](CCCCN)C(=O)N[C@@H](CC(N)=O)C(=O)N[C@@H](CC(C)C)C(=O)N[C@@H](CC(N)=O)C(=O)N[C@@H](CCC(=O)O)C(=O)N[C@@H](CO)C(=O)N[C@@H](CC(C)C)C(=O)N[C@H](C(=O)N[C@@H](CC(=O)O)C(=O)N[C@@H](CC(C)C)C(=O)N[C@@H](CCC(N)=O)C(=O)N[C@@H](CCC(=O)O)C(=O)N[C@@H](CC(C)C)C(=O)NCC(=O)N[C@@H](CCCCN)C(N)=O)[C@@H](C)CC)C(C)C)NC(=O)[C@H](CC(C)C)NC(=O)[C@H](CCCNC(=N)N)NC(=O)[C@H](CC(=O)O)NC(=O)[C@H]([C@@H](C)CC)NC(=O)[C@H](CCC(=O)O)NC(=O)[C@H](CCCCN)NC1=O)[C@@H](C)CC)C(C)C)C(C)C` [RQ-01 (- linker-lipid)] here?
**A.** 7.5 fold

**Q.** What does the source list for `CC[C@H](C)[C@H](NC(=O)CNC(=O)[C@H](CO)NC(=O)[C@@H](NC(=O)[C@H](CC(=O)O)NC(C)=O)[C@@H](C)CC)C(=O)N[C@@H](CC(N)=O)C(=O)N[C@@H](C)C(=O)N[C@@H](CO)C(=O)N[C@H](C(=O)N[C@H](C(=O)N[C@@H](CC(N)=O)C(=O)N[C@H](C(=O)N[C@]1(C)CCCCCCC=CCCC[C@@](C)(C(=O)N[C@@H](CCC(=O)O)C(=O)N[C@H](C(=O)N[C@@H](C)C(=O)N[C@@H](CCCCN)C(=O)N[C@@H](CC(N)=O)C(=O)N[C@@H](CC(C)C)C(=O)N[C@@H](CC(N)=O)C(=O)N[C@@H](CCC(=O)O)C(=O)N[C@@H](CO)C(=O)N[C@@H](CC(C)C)C(=O)N[C@H](C(=O)N[C@@H](CC(=O)O)C(=O)N[C@@H](CC(C)C)C(=O)N[C@@H](CCC(N)=O)C(=O)N[C@@H](CCC(=O)O)C(=O)N[C@@H](CC(C)C)C(=O)NCC(=O)N[C@@H](CCCCNC(=O)CCOCCOCCOCCOCCOCCOCCOCCOCCNC(=O)CO[C@H]2CC[C@@]3(C)C(=CC[C@H]4[C@@H]5CC[C@H]([C@H](C)CCCC(C)C)[C@@]5(C)CC[C@@H]43)C2)C(N)=O)[C@@H](C)CC)C(C)C)NC(=O)[C@H](CC(C)C)NC(=O)[C@H](CCCNC(=N)N)NC(=O)[C@H](CC(=O)O)NC(=O)[C@H]([C@@H](C)CC)NC(=O)[C@H](CCC(=O)O)NC(=O)[C@H](CCCCN)NC1=O)[C@@H](C)CC)C(C)C)C(C)C` [RQ-01]?
**A.** cytotoxicity (A549-ACE2 cells): no cytotoxicity; level at time molar at 4 h (in vivo [2]; RQ-01 tissue concentration): 23.2 µM; level at time molar at 4 h (in vivo [2]; pH 6.5, RQ-01 tissue concentration): 28.8 µM; elution by fast protein liquid chromatography [3]: eluted as a monodispersed peak; fold by which RQ-01 outperformed SARSHRC-PEG4-chol [4]: 4.7 fold; circular dichroism analysis [5]: exhibited α-helical character; OP swab titer [6]: 10-20 PFUs; lung histopathology (pneumonia global severity score, total lung score) [6]: significant protection from the pulmonary sequelae of SARS-CoV-2 infection; viral shedding by OP swab [6]: significantly reduced; weight loss [6]: significant protective effect from weight loss; also recorded: protection from weight loss was also observed; EC50 [1]: 1.9 nM; fold by which RQ-01 outperformed SARSHRC-PEG4-chol [7]: 23 fold; improvement of antiviral activity compared to the unstapled peptide [8]: 24 to 39 fold; level at time molar at 2 h (in vivo [9]; [14]): 16.2 µM; level at time molar at 4 h (in vivo [9]; [14]): 22.5 µM; level at time molar at 7 h (in vivo [9]; 1 mg/kg, RQ-01 Tissue Concentration): 0.064 µM; level at time molar (in vivo [9]; 2 mg/kg, pH 7.2, nasal tissue level, start): 10 µM; level at time molar at 2 h (in vivo [9]; [15]): 27.5 µM; level at time molar at 4 h (in vivo [9]; [15]): 28.1 µM; level at time molar at 7 h (in vivo [9]; [15]): 26.4 µM; level at time molar at 24 h (in vivo [9]; [15]): 18.7 µM; level at time molar at 2 h (in vivo [9]; [16]): 73 µM; level at time molar at 4 h (in vivo [9]; [16]): 44.9 µM; level at time molar at 7 h (in vivo [9]; [16]): 59.6 µM; level at time molar at 24 h (in vivo [9]; [16]): 25.4 µM; fold by which RQ-01 outperformed SARSHRC-PEG4-chol [10]: 5.4 fold; OP swab titers (Day 3) [11]: A subset of hamsters from both RQ-01 treated cohorts exhibited reduced OP swab titers; lung viral titers [11]: suppression of lung viral titers; transmission to sentinel hamsters [11]: did not prevent transmission; weight loss of sentinels [11]: protection from weight loss; clinical observations [12]: no adverse clinical findings; nasal tissue exposure relative to IC90 value [12]: 100-2000 x IC90; nasal tissue levels relative to infectivity assay IC90 [12]: over 100; peak lung tissue concentration relative to nasal tissue ([12]; pH 6.5): approximately 1/10th; plasma exposure relative to nasal tissue ([12]; pH 6.5): approximately 1/1000th; nasal tissue level by 48 h ([12]; pH 7.2): 1 µM; peak lung level ([12]; pH 7.2): 1 µM; intact compound, % of initial levels ([13]; 25 μM): fully preserved; Percent Intact Peptide ([13]; 1 h): 108.538% and 105.019% and 100.148% and 101.614%; Percent Intact Peptide ([13]; 12 h): 100.519% and 101.487% and 97.3524% and 61.8294% and 103.036% and 91.5274% and 92.844% and 95.276%

**Q.** With `CC[C@H](C)[C@H](NC(=O)[C@H](C)NC(=O)[C@H](CS)NC(=O)[C@H](CC(=O)O)NC(=O)[C@@H]1CCCN1C(=O)CNC(=O)[C@H](CC(C)C)NC(=O)[C@@H](NC(=O)[C@H](Cc1c[nH]cn1)NC(=O)[C@H](CS)NC(=O)[C@@H](NC(C)=O)[C@@H](C)O)[C@@H](C)CC)C(=O)N[C@@H](CCC(=O)O)C(=O)N1CCC[C@H]1C(=O)N[C@@H](Cc1c[nH]cn1)C(=O)N[C@@H](CC(=O)O)C(=O)N[C@@H](Cc1c[nH]c2ccccc12)C(=O)N[C@H](C(=O)N[C@]1(C)CCCCCCC=CCCC[C@@](C)(C(=O)N[C@@H](CCC(N)=O)C(=O)N[C@H](C(=O)N[C@H](C(=O)N[C@@H](Cc2c[nH]cn2)C(=O)N[C@@H](CC(=O)O)C(=O)N[C@@H](Cc2ccccc2)C(=O)N[C@H](C(=O)N[C@@H](CCCCNC(=O)CCOCCOCCOCCOCCNC(=O)CS[C@H]2CC[C@@]3(C)C(=CC[C@H]4[C@@H]5CC[C@H]([C@H](C)CCCC(C)C)[C@@]5(C)CC[C@@H]43)C2)C(N)=O)C(C)C)[C@@H](C)CC)[C@@H](C)CC)NC(=O)[C@H]([C@@H](C)CC)NC(=O)[C@H](CCCCN)NC(=O)[C@H](CC(=O)O)NC(=O)[C@H]([C@@H](C)O)NC(=O)[C@H]([C@@H](C)CC)NC(=O)[C@H](CCC(=O)O)NC1=O)[C@@H](C)O` [SLI-EBOV] (Ac-TCHILGPDCAIEPHDWT[R8]EITDKI[S5]QIIHDFVK([PEG4-Acetyl(2-S-cholesteryl)])-NH2; staple 18-25) as the compound, how does the cytotoxicity (HeLa cells) read?
**A.** no cytotoxicity
